Measurements as given in patent publication US9290459B1, “Substituted bicyclic dihydropyrimidinones and their use as inhibitors of neutrophil elastase activity” (Boehringer Ingelheim International GmbH, priority 2013, dated 2016).
Converted amounts (≈) assume the structure as drawn. Values belong to the molecule of their own block, whether it stands above or below them.

Experiments:
[1] = Aqueous solubility; format: physicochemical; conditions: McIlvaine buffer pH 6.8, 2.5% DMSO, 24 h shaking; for solubility at 24 h: McIlvaine buffer pH 6.8 with 2.5% DMSO, pH 6.8, aqueous buffer, kinetic from dmso stock
Protocol: Assay for Determination of Aqueous Solubility […] After 24 h of shaking, the solutions or suspensions are filtered and analyzed by LC-UV. The amount dissolved in buffer is compared to the amount dissolved in the acetonitrile/water (1/1) solution.

[2] = Drug transport across human Caco-2 cells; format: in vitro ADME; conditions: human, Caco-2, pH 7.2, Caco-2 monolayers, pH 7.2, 37° C.; for Papp A→B at 10 µM: apical-to-basal, read-out: PEAB; for Papp B→A at 10 µM: basal-to-apical, read-out: PEBA
[3] = Metabolic stability with human liver microsomes; format: in vitro ADME; conditions: for t1/2 INVITRO: pooled human liver microsomes, 1 mg/ml protein, 1 μM test compound, 37° C., NADPH; for half-life at 1 μM: human, microsomes, pH 7.6
[4] = molecular target: Human neutrophil elastase (Homo sapiens (Human), UniProt P08246); assay: Human Neutrophil Elastase Assay; format: biochemical; conditions: human neutrophil elastase, substrate MeOSuc-Ala-Ala-Pro-Val-AMC 250 μM, pH 7.5; read-out: IC50
Human neutrophil elastase, sequence (P08246 30-247): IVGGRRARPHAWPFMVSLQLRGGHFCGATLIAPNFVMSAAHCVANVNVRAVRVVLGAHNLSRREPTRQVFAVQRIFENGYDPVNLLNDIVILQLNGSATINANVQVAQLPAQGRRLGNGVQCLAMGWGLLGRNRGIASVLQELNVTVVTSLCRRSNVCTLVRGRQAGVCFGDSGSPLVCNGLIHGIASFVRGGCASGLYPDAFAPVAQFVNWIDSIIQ

SMILES: CS(=O)(=O)c1cc(C#N)ccc1C1NC(=O)N(c2ccnc(C(F)(F)F)c2)C2=C1C(=O)CC2 (centres unmarked) [Example 15.6, 4-(2,5-dioxo-1-(2-(trifluoromethyl)pyridin-4-yl)-2,3,4,5,6,7-hexahydro-1H-cyclopenta[d]-pyrimidin-4-yl)-3-(methylsulfonyl)benzonitrile]
IC50 [4]: 43.6 nM
solubility at 24 h [1]: 76 µg/mL (≈ 160 µM)
half-life at 1 μM [3]: > 2.17 h

SMILES: CS(=O)(=O)c1cc(C#N)ccc1C1C2=C(CCC2=O)N(c2cccc(C(F)(F)F)c2)C(=O)N1CC(=O)N1CC2CC2C1 (centres unmarked) [Example 22.4]
t1/2 INVITRO [3]: >2.17 h

SMILES: CS(=O)(=O)c1cc(C#N)ccc1C1C2=C(CCC2=O)N(c2cccc(C(F)(F)F)c2)C(=O)N1CCCO (centres unmarked) [Example 24.1]
Aqueous solubility [1]: 64 µg/mL
t1/2 INVITRO [3]: 1.67 h

SMILES: CCS(=O)(=O)c1cc(C#N)ccc1C1C2=C(CCC2=O)N(c2cccc(C(F)(F)F)c2)C(=O)N1S(C)(=O)=O (centres unmarked) [Example 37.4]
IC50 [4]: 1.7 nM
solubility at 24 h [1]: 21 µg/mL (≈ 37 µM)
half-life at 1 μM [3]: > 2.17 h

SMILES: N#Cc1ccc([C@@H]2C3=C(CCC3=O)N(c3cccc(C(F)(F)F)c3)C(=O)N2C(=O)NC2CCS(=O)(=O)CC2)cc1 [Example 46, (R)-4-(4-Cyanophenyl)-2,5-dioxo-N-(1,1-dioxo-hexahydro-1λ^6-thiopyran-4-yl)-1-(3-(trifluoromethyl)phenyl)-4,5,6,7-tetrahydro-1H-cyclopenta[d]pyrimidine-3(2H)-carboxamide]
Aqueous solubility [1]: 10 µg/mL
t1/2 INVITRO [3]: >2.17 h

SMILES: CNC(=O)N1C(=O)N(c2cccc(C(F)F)c2)C2=C(C(=O)CC2)C1c1ccc(C#N)cc1S(C)(=O)=O (centres unmarked) [Example 53.1]
IC50 [4]: < 1 nM

SMILES: CCNC(=O)N1C(=O)N(c2cccc(C(F)F)c2)C2=C(C(=O)CC2)C1c1ccc(C#N)cc1S(C)(=O)=O (centres unmarked) [Example 53.2]
IC50 [4]: < 1 nM

SMILES: CC(C)(O)CNC(=O)N1C(=O)N(c2cccc(C(F)F)c2)C2=C(C(=O)CC2)C1c1ccc(C#N)cc1S(C)(=O)=O (centres unmarked) [Example 53.5]
IC50 [4]: < 1 nM

SMILES: CS(=O)(=O)N1C(=O)N(c2ccnc(C(F)(F)F)c2)C2=C(C(=O)CC2)C1c1ccc(C#N)cc1 (centres unmarked) [Example 57, 4-(3-(Methylsulfonyl)-2,5-dioxo-1-(2-(trifluoromethyl)pyridin-4-yl)-2,3,4,5,6,7-hexahydro-1H-cyclopenta[d]pyrimidin-4-yl)benzonitrile]
IC50 [4]: 34.9 nM

Further lines, results first:

solubility at 24 h [1]: 70 µg/mL (≈ 170 µM)
Papp A→B at 10 µM [2]: 87 ×10⁻⁶ cm/s
Papp B→A at 10 µM [2]: 69 ×10⁻⁶ cm/s
SMILES: CN1C(=O)N(c2cccc(C(F)(F)F)c2)C2=C(C(=O)CC2)[C@H]1c1ccc(C#N)cc1 [Example 2A, (R)-4-(3-Methyl-2,5-dioxo-1-(3-(trifluoromethyl)phenyl)-2,3,4,5,6,7-hexahydro-1H-cyclopenta[d]pyrimidin-4-yl)benzonitrile]

Aqueous solubility [1]: 104 µg/mL
SMILES: CN(C)CCNC(=O)N1C(=O)N(c2cccc(C(F)(F)F)c2)C2=C(C(=O)CC2)C1c1ccc(C#N)cc1 (centres unmarked) [Example 7.5]

Aqueous solubility [1]: 94 µg/mL
t1/2 INVITRO [3]: >2.17 h
SMILES: C[S+]([O-])CCNC(=O)N1C(=O)N(c2cccc(C(F)(F)F)c2)C2=C(C(=O)CC2)C1c1ccc(C#N)cc1 (centres unmarked) [Example 7.6]

Aqueous solubility [1]: 106 µg/mL
SMILES: CN1CC(NC(=O)N2C(=O)N(c3cccc(C(F)(F)F)c3)C3=C(C(=O)CC3)C2c2ccc(C#N)cc2)CC1=O (centres unmarked) [Example 7.9]

Papp A→B at 10 µM [2]: 72.4 ×10⁻⁶ cm/s
Papp B→A at 10 µM [2]: 68.1 ×10⁻⁶ cm/s
half-life at 1 μM [3]: > 2.17 h
SMILES: CNC(=O)N1C(=O)N(c2cccc(C(F)(F)F)c2)C2=C(C(=O)CC2)C1c1ccc(C#N)cc1OC (centres unmarked) [Example 50.3]

IC50 [4]: 619 nM
SMILES: N#Cc1ccc([C@H]2C3=C(CCC3=O)N(c3cccc(C(F)F)c3)C(=O)N2C(=O)NCCCO)cc1 [Example 52B, (S)-4-(4-Cyanophenyl)-1-(3-(difluoromethyl)phenyl)-N-(3-hydroxypropyl)-2,5-dioxo-4,5,6,7-tetrahydro-1H-cyclopenta[d]pyrimidine-3(2H)-carboxamide]
